Several values for one entry are separate records, joined by “and”; a condition that tells them apart may be missing. Equal entries are not always repeated.
Tested on: NCI-H196 complex spheroid growth, percent test/control
Test: Anticancer human tumor NCI-H196 cell line growth inhibition [AhR];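 further: seven days of drug exposure starting three days after plating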;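 on viability, T/C: 100% = DMSO vehicle control wells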
Conditions: for viability, T/C: stronger effect = lower value; active means viability on the fitted dose curve at most 10% of control; inactive means the rest
Source text: Multicellular complex tumor spheroid response to aryl hydrocarbon receptor antagonists in combination with a variety of drugs and investigational agents in selected tumor cell lines
The current study was undertaken to assess response to aryl hydrocarbon receptor antagonists in combination with standard-of-care drugs and investigational agents in solid tumor complex spheroid models. Complex spheroids include a stromal component modeled by human endothelial cells (HUVEC) and fibroblasts modeled by human mesenchymal stem cells (MSCs). The concentration ranges selected for each drug and investigational agent were based upon clinically achievable concentrations if the clinical Cmax of the agent was known.
Compounds. The drugs and investigational agents: BAY 2416964 (NSC825713), GNF351 (NSC835774), CH-223191 (NSC835775), CPI-455 (NSC825282), aza-TdCyd (NSC777586), decitabine (NSC127716), belinostat (NSC758774), entinostat (NSC756642), pevonedistat (NSC761192), tazemetostat (NSC777109), talazoparib (NSC765396), olaparib (NSC753686), selinexor (NSC780203), nedisertib (M3814, NSC802822), bortezomib (NSC756655), venetoclax (NSC766270), doxorubicin (NSC123127), elimusertib (BAY189344, NSC800525), ceralasertib (AZD6738, NSC777638), TAK-243 (NSC785004), alisertib (NSC759677), etoposide (NSC141540), topotecan (NSC609699), eribulin (NSC707389), gemcitabine (NSC613327), carboplatin (NSC241240), cisplatin (NSC119875), and SN-38 (NSC673596) were obtained from the National Cancer Institute (NCI) Developmental Therapeutics Program Chemical Repository (32). The FDA-approved anticancer drug set is available from the Developmental Therapeutics Program at https://dtp.cancer.gov/organization/dscb/obtaining/available plates.htm. […] The stock solutions were prepared in dimethyl sulfoxide (DMSO, Sigma-Aldrich, St. Louis, MO, cat. D2650), except for the platinum compounds which were prepared in saline (Quality Biological, Gaithersburg, MD, cat. 114-055-101), at 800-fold the tested concentration and stored at -70 degrees C prior to their use. All drugs and investigational agents were tested over a range starting from a high concentration at or near the clinical Cmax and decreasing in half-log increments. If the clinical Cmax for an agent had not been determined, the highest concentration tested was 10 microM (Table 1).
Cell Culture. All cells were maintained in an incubator at 37 degrees C and 5% CO2 with 95% humidity. The PDC lines were cultured according to standard operating procedures established by the NCI PDMR (https://pdmr.cancer.gov). Briefly, all PDCs were thawed and cultured in Matrigel-coated flasks prepared with a working solution of 1X Ham's F-12 nutrient mix, without supplementation (Invitrogen, Waltham, MA, cat. 11765054), 100 U/mL penicillin-streptomycin (Invitrogen, cat. 15140122), and 2.5% Matrigel (Corning Inc., Corning, NY, cat. 354248) for the first three passages. All PDCs were cultured in complete DMEM/F-12 media containing advanced DMEM/F-12 (Invitrogen, cat. 12634028), 4.9% defined fetal bovine serum, heat inactivated (HyClone Laboratories Inc., Logan, UT, cat. SH30070.03HI), 389 ng/mL hydrocortisone (Sigma-Aldrich, cat. H4001), 9.7 ng/mL human EGF recombinant protein (Invitrogen, cat. PHG0313), 23.4 microg/mL adenine (Sigma-Aldrich, cat. A2786), 97.3 U/mL penicillin-streptomycin (Invitrogen, cat. 15140122), 1.9 mM L-glutamine (Invitrogen, cat. 25030081), and 9.7 microM Y-27632 dihydrochloride (Tocris Bioscience, Bristol, United Kingdom, cat. 1254). The PDCs were cultured in complete DMEM/F12 media without 10 microM Y-27632 dihydrochloride for at least two passages prior to the screen. The established cell lines NCI-H1341 and […] were cultured in DMEM/F-12, HEPES (Invitrogen, cat. 11330032), 5% defined fetal bovine serum (HyClone Laboratories Inc., cat. SH30070.03), ITS premix universal culture supplement [insulin (5 microg/mL), transferrin (5 microg/mL), and selenious acid (5 ng/mL)] […]

CCN(c1cc(-c2ccc(CN3CCOCC3)cc2)cc(C(=O)NCc2c(C)cc(C)[nH]c2=O)c1C)C1CCOCC1 + Cc1ccccc1N=Nc1ccc(NC(=O)c2ccnn2C)c(C)c1
inactive: viability, T/C (second compound 0.1 µM, first compound 0.00949 µM) 95% | viability, T/C (second compound 0.1 µM, first compound 0.03 µM) 104% | viability, T/C (second compound 0.1 µM, first compound 0.0949 µM) 103% | viability, T/C (second compound 0.1 µM, first compound 0.3 µM) 104% | viability, T/C (second compound 0.1 µM, first compound 0.949 µM) 90.2% | viability, T/C (second compound 0.1 µM, first compound 3 µM) 89.6% | viability, T/C (second compound 0.316 µM, first compound 0.00949 µM) 104% | viability, T/C (second compound 0.316 µM, first compound 0.03 µM) 99.2% | viability, T/C (second compound 0.316 µM, first compound 0.0949 µM) 102% | viability, T/C (second compound 0.316 µM, first compound 0.3 µM) 97.3% | viability, T/C (second compound 0.316 µM, first compound 0.949 µM) 94.7% | viability, T/C (second compound 0.316 µM, first compound 3 µM) 96.3% | viability, T/C (second compound 1 µM, first compound 0.00949 µM) 98.6% | viability, T/C (second compound 1 µM, first compound 0.03 µM) 98.1% | viability, T/C (second compound 1 µM, first compound 0.0949 µM) 111% | viability, T/C (second compound 1 µM, first compound 0.3 µM) 103% | viability, T/C (second compound 1 µM, first compound 0.949 µM) 101% | viability, T/C (second compound 1 µM, first compound 3 µM) 107% | viability, T/C (second compound 3.16 µM, first compound 0.00949 µM) 93% | viability, T/C (second compound 3.16 µM, first compound 0.03 µM) 103% | viability, T/C (second compound 3.16 µM, first compound 0.0949 µM) 105% | viability, T/C (second compound 3.16 µM, first compound 0.3 µM) 98.1% | viability, T/C (second compound 3.16 µM, first compound 0.949 µM) 93.2% | viability, T/C (second compound 3.16 µM, first compound 3 µM) 96.3% | viability, T/C (second compound 10 µM, first compound 0.00949 µM) 89.9% | viability, T/C (second compound 10 µM, first compound 0.03 µM) 97.8% | viability, T/C (second compound 10 µM, first compound 0.0949 µM) 92.9% | viability, T/C (second compound 10 µM, first compound 0.3 µM) 89.7% | viability, T/C (second compound 10 µM, first compound 0.949 µM) 90.1% | viability, T/C (second compound 10 µM, first compound 3 µM) 102%
> 3 µM: IC50 (curve of first compound, second compound 0.1 µM) | IC50 (curve of first compound, second compound 0.316 µM) | IC50 (curve of first compound, second compound 1 µM) | IC50 (curve of first compound, second compound 3.16 µM) | IC50 (curve of first compound, second compound 10 µM)

COc1cc(Nc2ncc3c(n2)-c2ccc(Cl)cc2C(c2c(F)cccc2OC)=NC3)ccc1C(=O)O
> 10 µM: IC50 (curve of compound)
inactive: viability, T/C (compound 0.0316 µM) 91.6% and 84.6% and 104% | viability, T/C (compound 0.1 µM) 92.1% and 90.5% and 106% | viability, T/C (compound 0.316 µM) 109% and 92.9% and 107% | viability, T/C (compound 1 µM) 117% and 90.2% and 116% | viability, T/C (compound 3.16 µM) 114% and 120% and 121% | viability, T/C (compound 10 µM) 125% and 108% and 132%

From PubChem BioAssay AID1919016 (Molecular Pharmacology Branch, DTP, NCI, 2023)
